Assay results reported in patent US20260042764A1, “COMPOSITIONS AND METHODS FOR INHIBITION OF KRAS” (TheRas, Inc., priority 2022, published 2026).
pIC50: −log10 of the molar value.

How the values were obtained:
[1] = molecular target: T1, Avi-KRAS WT (1-169) GppNHp/RAF1 RBD-3xFLAG (52-151) (Homo sapiens, UniProt P01116); test: Raf1-KRAS WT-GppNHP disruption HTRF assay (Biological Example 1); type: binding
T1 construct: Avi-KRAS WT (1-169)
How it was run: (§1)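 Read-out is HTRF signal of the KRAS–RAF1 RBD complex, reported as percentage of activity relative to DMSO (100%). Protein mix and detection reagents each incubated 1 h at room temperature with 700 rpm shaking. Buffer: 50 mM Tris pH 7.5, 100 mM NaCl, 5 mM MgCl2, 0.1% BSA, 0.01% Tween, 10% DMSO.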

[2] = molecular target: T2, Avi-KRAS G12R (1-169) GppNHp/RAF1 RBD-3xFLAG (52-151) (Homo sapiens, UniProt P01116, G12R); test: Raf1-KRAS G12R-GppNHP disruption HTRF assay (Biological Example 1); type: binding
T2 construct: Avi-KRAS G12R (1-169)
T2 sequence (P01116 1-169 isoform P01116-2 G12R): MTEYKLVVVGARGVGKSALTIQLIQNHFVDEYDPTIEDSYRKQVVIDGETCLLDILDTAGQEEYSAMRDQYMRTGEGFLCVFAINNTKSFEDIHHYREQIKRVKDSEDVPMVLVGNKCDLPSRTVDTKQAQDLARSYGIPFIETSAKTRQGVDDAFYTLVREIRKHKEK
How it was run: as §1

[3] = molecular target: T3, Avi-KRAS G12V (1-169) GppNHp/RAF1 RBD-3xFLAG (52-151) (Homo sapiens, UniProt P01116, G12V); test: Raf1-KRAS G12V-GppNHP disruption HTRF assay (Biological Example 1); type: binding
T3 construct: Avi-KRAS G12V (1-169)
T3 sequence (P01116 1-169 isoform P01116-2 G12V): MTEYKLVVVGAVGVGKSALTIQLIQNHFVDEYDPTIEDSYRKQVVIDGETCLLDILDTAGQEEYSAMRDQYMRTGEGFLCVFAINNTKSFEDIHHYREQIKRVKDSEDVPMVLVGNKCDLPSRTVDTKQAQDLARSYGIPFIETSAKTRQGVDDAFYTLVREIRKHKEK
How it was run: as §1

SW620 cells (KRAS G12V) = test: Cell-based pERK HTRF assay in SW620 cell (Biological Example 4); conditions: Homo sapiens, SW-620, SW620 (KRAS G12V) cells, pERK HTRF
How it was run: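 SW620 (KRAS G12V) cells seeded at 3×10^4/well in RPMI, 10% FBS, then treated next day for 4 h with a 9-point half-log series from 1 μM top (0.25% DMSO). Lysates analyzed for pERK by HTRF (Eu cryptate/d2 antibodies, 4–24 h at room temperature), excitation 320 nm, emission 615 nm.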

GP2d cells (KRAS G12D) = test: Cell-based pERK HTRF assay in GP2d cell (Biological Example 2); conditions: GP2d, GP2d (KRAS G12D) cells, pERK HTRF
How it was run: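 Treatment with test compounds lasted one hour in DMEM containing 10% FBS, with DMSO held at 0.25%. Dilution series: 9 points, half-log spacing, highest 1 μM or 100 nM. Lysates were incubated 4–24 h at room temperature with antibody mix, then HTRF was read at 320 nm excitation.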

[4] = molecular target: T4, Avi-KRAS G12D (1-169) GppNHp/RAF1 RBD-3xFLAG (52-151) (Homo sapiens, UniProt P01116, G12D); test: Raf1-KRAS G12D-GppNHP disruption HTRF assay (Biological Example 1); type: binding
T4 construct: Avi-KRAS G12D (1-169)
T4 sequence (P01116 1-169 isoform P01116-2 G12D): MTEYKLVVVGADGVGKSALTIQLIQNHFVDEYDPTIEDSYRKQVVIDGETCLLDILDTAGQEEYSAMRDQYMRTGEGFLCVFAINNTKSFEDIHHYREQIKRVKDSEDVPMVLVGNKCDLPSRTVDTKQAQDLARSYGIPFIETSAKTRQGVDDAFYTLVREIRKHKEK
How it was run: as §1

[5] = KRAS WT, GppNHp-loaded, class symbols
[6] = KRAS G12R, GppNHp-loaded, class symbols
[7] = KRAS G12V, GppNHp-loaded, class symbols
[8] = KRAS G12D, GppNHp-loaded, class symbols
[9] = KRAS WT, GppNHp-loaded, Table 11
[10] = KRAS G12R, GppNHp-loaded, Table 11
[11] = KRAS G12V, GppNHp-loaded, Table 11
[12] = KRAS G12D, GppNHp-loaded, Table 11

T1 sequence (P01116 1-169 isoform P01116-2): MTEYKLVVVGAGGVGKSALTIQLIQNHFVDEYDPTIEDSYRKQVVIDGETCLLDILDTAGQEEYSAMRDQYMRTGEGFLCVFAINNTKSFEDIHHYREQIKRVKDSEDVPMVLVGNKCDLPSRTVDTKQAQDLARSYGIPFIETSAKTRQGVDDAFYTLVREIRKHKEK

Structure (SMILES) | pIC50 ([1]; KRAS WT-GppNHp/RAF1 RBD HTRF) | pIC50 ([2]; KRAS G12R-GppNHp/RAF1 RBD HTRF) | pIC50 ([3]; KRAS G12V-GppNHp/RAF1 RBD HTRF) | pIC50 (SW620 cells (KRAS G12V)) | pIC50 (GP2d cells (KRAS G12D)) | pIC50 ([4]; KRAS G12D-GppNHp/RAF1 RBD HTRF) | pIC50 [1, 5] | pIC50 [2, 6] | pIC50 [3, 7] | pIC50 (SW620 cells (KRAS G12V); class symbols) | pIC50 (GP2d cells (KRAS G12D); class symbols) | pIC50 [4, 8] | pIC50 [1, 9] | pIC50 [2, 10] | pIC50 [3, 11] | pIC50 [4, 12]
CCN(c1nc(OC[C@@]23CCCN2C[C@H](F)C3)nc2c(F)c(-c3ccc(F)c4sc(N)c(C#N)c34)c(C(F)(F)F)cc12)[C@@H]1CCN(C(=O)OC)[C@@H]1C [Compound 489] | 6.00 to 7.00 | 6.00 to 7.00 | 6.00 to 7.00 | > 7.00 | > 7.00 | 6.00 to 7.00 | – | – | – | – | – | – | – | – | – | –
C[C@@H]1Cn2nc(C(=O)N(C)C)cc2CN1c1nc(OC[C@@]23CCCN2C[C@H](F)C3)nc2c(F)c(-c3ccc(F)c4sc(N)c(C#N)c34)c(C(F)(F)F)cc12 [Compound 510] | 5.00 to 6.00 | 6.00 to 7.00 | 5.00 to 6.00 | > 7.00 | > 7.00 | 5.00 to 6.00 | – | – | – | – | – | – | – | – | – | –
[2H][C@]1(N(CC)c2nc(OC[C@@]34CCCN3C[C@H](F)C4)nc3c(F)c(-c4ccc(F)c5sc(N)c(C#N)c45)c(C(F)(F)F)cc23)CCN(C(=O)OC)C1 (atropisomer, axis not shown) [Compound 800] | – | – | – | – | – | – | > 7.00 | > 7.00 | > 7.00 | > 7.00 | > 7.00 | > 7.00 | – | – | – | –
CC(=O)N1CC[C@@](C)(N(C)c2nc(OC[C@@]34CCCN3C[C@H](F)C4)nc3c(F)c(-c4ccc(F)c5sc(N)c(C#N)c45)c(C(F)(F)F)cc23)[C@H]1C [Compound 342] | 6.00 to 7.00 | 5.00 to 6.00 | 5.00 to 6.00 | 6.00 to 7.00 | > 7.00 | 5.00 to 6.00 | – | – | – | – | – | – | – | – | – | –
CCOC(=O)N1CC[C@H](N(CC)c2nc(OC[C@@]34CCCN3C[C@H](F)C4)nc3c(F)c(-c4ccc(F)c5sc(N)c(C#N)c45)c(C(F)(F)F)cc23)C1 (atropisomer, axis not shown) [Compound 686] | – | – | – | – | – | – | 6.00 to 7.00 | > 7.00 | > 7.00 | > 7.00 | > 7.00 | > 7.00 | – | – | – | –
C[C@H]1[C@@H](N(C)c2nc(OC[C@@]34CCCN3C[C@H](F)C4)nc3c(F)c(-c4ccc(F)c5sc(N)c(C#N)c45)c(C(F)(F)F)cc23)CCN1C(=O)CC#N [Compound 252] | – | – | – | 6.00 to 7.00 | 6.00 to 7.00 | – | – | – | – | – | – | – | 5.00 to 6.00 | 5.00 to 6.00 | 5.00 to 6.00 | 5.00 to 6.00
N#Cc1c(N)sc2c(F)ccc(-c3c(C(F)(F)F)cc4c(N5CC(F)(F)C5)nc(OC[C@@]56CCCN5C[C@H](F)C6)nc4c3F)c12 [Compound 205] | – | – | – | > 7.00 | > 7.00 | – | – | – | – | – | – | – | 6.00 to 7.00 | 6.00 to 7.00 | 6.00 to 7.00 | 6.00 to 7.00

The next lines start with the values.

pIC50 ([1]; KRAS WT-GppNHp/RAF1 RBD HTRF) | pIC50 ([2]; KRAS G12R-GppNHp/RAF1 RBD HTRF) | pIC50 ([3]; KRAS G12V-GppNHp/RAF1 RBD HTRF) | pIC50 (SW620 cells (KRAS G12V)) | pIC50 (GP2d cells (KRAS G12D)) | pIC50 ([4]; KRAS G12D-GppNHp/RAF1 RBD HTRF) | pIC50 [1, 5] | pIC50 [2, 6] | pIC50 [3, 7] | pIC50 (SW620 cells (KRAS G12V); class symbols) | pIC50 (GP2d cells (KRAS G12D); class symbols) | pIC50 [4, 8] | pIC50 [1, 9] | pIC50 [2, 10] | pIC50 [3, 11] | pIC50 [4, 12] | Structure (SMILES)
– | – | – | – | – | – | > 7.00 | > 7.00 | > 7.00 | > 7.00 | > 7.00 | > 7.00 | – | – | – | – | CCN(c1nc(OC[C@@]23CCCN2C[C@H](F)C3)nc2c(F)c(-c3ccc(F)c4sc(N)c(C#N)c34)c(C(F)(F)F)cc12)[C@H]1C[C@H](C)N(C(=O)c2ccon2)C1 (atropisomer, axis not shown) [Compound 766]
– | – | – | > 7.00 | > 7.00 | – | – | – | – | – | – | – | 6.00 to 7.00 | 6.00 to 7.00 | 6.00 to 7.00 | 6.00 to 7.00 | CC(=O)N1CC[C@@H](N(C)c2nc(OC[C@@]34CCCN3C[C@H](F)C4)nc3c(F)c(-c4ccc(F)c5sc(N)c(C#N)c45)c(C(F)(F)F)cc23)C1 [Compound 112]
– | – | – | – | – | – | > 7.00 | > 7.00 | > 7.00 | > 7.00 | > 7.00 | > 7.00 | – | – | – | – | CCN(c1nc(OCC23CCCN2CC(F)C3)nc2c(F)c(-c3ccc(F)c4sc(N)c(C#N)c34)c(C(F)(F)F)cc12)C1CCN(C(=O)c2cccnc2)C1 (stereo not drawn) [Compound 715]
– | – | – | – | – | – | 6.00 to 7.00 | 6.00 to 7.00 | 6.00 to 7.00 | > 7.00 | > 7.00 | 6.00 to 7.00 | – | – | – | – | CCc1c(C(=O)N(C)C)nn2c1CN(c1nc(OCC34CCCN3CC(F)C4)nc3c(F)c(-c4ccc(F)c5sc(N)c(C#N)c45)c(C(F)(F)F)cc13)CC2 (stereo not drawn) [Compound 773]
